Assay results reported in patent publication US20170304388A1, “NEW INDICATION OF CARDIOVASCULAR DRUGS FOR PREPARATION OF CANCER INHIBITION PHARMACEUTICAL COMPOSITION” (LAUNX BIOMEDICAL CO., LTD., priority 2014, published 2017).

Assays:
Assay type in all cases: cell-based
U2OS = assay: Cell viability analysis (WST-1), U2OS; settings: Table 4, repeated experiments, drug 10 μM; for viability at 10 µM: Homo sapiens, U2OS, 72 h, read-out: survival rate (viability) of cancer cells, U2OS
How it was run: (§1)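 Cancer cells seeded at 3000 cells/well, then medium replaced with drug at 10 μM. After 72 h, WST-1 diluted 9:1 in medium was added and plates incubated at 37° C for 30 to 90 minutes; survival rate calculated from OD450 nm.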

[1] = test system: HepG2 (Hepatocellular Carcinoma); assay: Cell viability analysis (WST-1), HepG2; settings: Table 4, repeated experiments, drug 10 μM; for viability at 10 µM: Homo sapiens, HepG2, 72 h, WST-1, read-out: survival rate (viability) of cancer cells, HepG2
MDA-MB231 = assay: Cell viability analysis (WST-1), MDA-MB231; settings: Table 4, repeated experiments, drug 10 μM; for viability at 10 µM: Homo sapiens, MDA-MB-231, 72 h, read-out: survival rate (viability) of cancer cells, MDA-MB231
T24 = assay: Cell viability analysis (WST-1), T24; settings: Table 4, repeated experiments, drug 10 μM; for viability at 10 µM: Homo sapiens, T-24, 72 h, read-out: survival rate (viability) of cancer cells, T24
How it was run: as §1

[2] = test system: A375 (Amelanotic Melanoma); assay: Cell viability analysis (WST-1), A375; settings: Table 4, repeated experiments, drug 10 μM; for viability at 10 µM: Homo sapiens, A-375, 72 h, WST-1, read-out: survival rate (viability) of cancer cells, A375
AsPC-1 = assay: Cell viability analysis (WST-1), AsPC-1; settings: Table 4, repeated experiments, drug 10 μM; for viability at 10 µM: Homo sapiens, ASPC1, 72 h, read-out: survival rate (viability) of cancer cells, AsPC-1
How it was run: as §1

[3] = test system: MCF7 (Mammary Gland, Adenocarcinoma); assay: Cell viability analysis (WST-1), MCF7; settings: Table 4, repeated experiments, drug 10 μM; for viability at 10 µM: Homo sapiens, MCF7, 72 h, WST-1, read-out: survival rate (viability) of cancer cells, MCF-7
C-33A = assay: Cell viability analysis (WST-1), C-33A; settings: Table 4, repeated experiments, drug 10 μM; for viability at 10 µM: Homo sapiens, C-33-A, 72 h, read-out: survival rate (viability) of cancer cells, C-33A
How it was run: as §1

NIH-OVCAR-3 = assay: Cell viability analysis (WST-1), NIH-OVCAR-3; settings: Table 4, repeated experiments, drug 10 μM; for viability at 10 µM: Homo sapiens, OVCAR-3, 72 h, read-out: survival rate (viability) of cancer cells, NIH-OVCAR-3
How it was run: as §1

SAS = assay: Cell viability analysis (WST-1), SAS; settings: Table 4, repeated experiments, drug 10 μM; for viability at 10 µM: 72 h, read-out: survival rate (viability) of cancer cells, SAS
How it was run: as §1

[4] = test system: AGS (Gastric Adenocarcinoma); assay: Cell viability analysis (WST-1), AGS; settings: Table 4, repeated experiments, drug 10 μM; for viability at 10 µM: 72 h, WST-1, read-out: survival rate (viability) of cancer cells, AGS
[5] = test system: H1650 (Lung Adenocarcinoma); assay: Cell viability analysis (WST-1), H1650; settings: Table 4, repeated experiments, drug 10 μM; for viability at 10 µM: Homo sapiens, NCI-H1650, 72 h, WST-1, read-out: survival rate (viability) of cancer cells, H1650
BxPC-3 = assay: Cell viability analysis (WST-1), BxPC-3; settings: Table 4, repeated experiments, drug 10 μM; for viability at 10 µM: Homo sapiens, BXPC-3, 72 h, read-out: survival rate (viability) of cancer cells, BxPC-3
How it was run: as §1

[6] = test system: LoVo (Colorectal Adenocarcinoma); assay: Cell viability analysis (WST-1), LoVo; settings: Table 4, repeated experiments, drug 10 μM; for viability at 10 µM: Homo sapiens, LoVo, 72 h, WST-1, read-out: survival rate (viability) of cancer cells, LoVo
cancer cell lines = assay: Growth inhibitory effects on the panel of cancer cell lines; settings: drug 10 μM, 72 hours, WST-1
Hep3B = assay: Cell viability analysis (WST-1), Hep3B; settings: Table 4, repeated experiments, drug 10 μM; for viability at 10 µM: Homo sapiens, Hep3B, 72 h, read-out: survival rate (viability) of cancer cells, Hep3B
How it was run: as §1

[7] = test system: TSGH-8301 (Urinary Bladder Carcinoma); assay: Cell viability analysis (WST-1), TSGH-8301; settings: Table 4, repeated experiments, drug 10 μM; for viability at 10 µM: 72 h, WST-1, read-out: survival rate (viability) of cancer cells, TSGH-8301
[8] = test system: MKN-45 (Gastric Adenocarcinoma); assay: Cell viability analysis (WST-1), MKN-45; settings: Table 4, repeated experiments, drug 10 μM; for viability at 10 µM: Homo sapiens, MKN-45, 72 h, WST-1, read-out: survival rate (viability) of cancer cells, MKN-45
[9] = test system: PC3 (Prostate Adenocarcinoma); assay: Cell viability analysis (WST-1), PC3; settings: Table 4, repeated experiments, drug 10 μM; for viability at 10 µM: 72 h, WST-1, read-out: survival rate (viability) of cancer cells, PC-3
[10] = test system: HCT116 (Colorectal Carcinoma); assay: Cell viability analysis (WST-1), HCT116; settings: Table 4, repeated experiments, drug 10 μM; for viability at 10 µM: Homo sapiens, HCT-116, 72 h, WST-1, read-out: survival rate (viability) of cancer cells, HCT116
[11] = test system: HeLa (Cervix Adenocarcinoma); assay: Cell viability analysis (WST-1), HeLa; settings: Table 4, repeated experiments, drug 10 μM; for viability at 10 µM: Homo sapiens, HeLa, 72 h, WST-1, read-out: survival rate (viability) of cancer cells, HeLa
786-O = assay: Cell viability analysis (WST-1), 786-O; settings: Table 4, repeated experiments, drug 10 μM; for viability at 10 µM: Homo sapiens, 786-0, 72 h, read-out: survival rate (viability) of cancer cells, 786-O
How it was run: as §1

BCC = assay: Cell viability analysis (WST-1), BCC; settings: Table 4, repeated experiments, drug 10 μM; for viability at 10 µM: BCC, 72 h, read-out: survival rate (viability) of cancer cells, BCC
TOV-21G = assay: Cell viability analysis (WST-1), TOV-21G; settings: Table 4, repeated experiments, drug 10 μM; for viability at 10 µM: Homo sapiens, TOV21G, 72 h, read-out: survival rate (viability) of cancer cells, TOV-21G
How it was run: as §1

[12] = test system: A549 (Lung Adenocarcinoma); assay: Cell viability analysis (WST-1), A549; settings: Table 4, repeated experiments, drug 10 μM; for viability at 10 µM: Homo sapiens, A549, 72 h, WST-1, read-out: survival rate (viability) of cancer cells, A549

CCC[C@H](N[C@@H](C)C(=O)N1[C@H](C(=O)O)C[C@@H]2CCCC[C@@H]21)C(=O)OCC [Perindopril Erbumine (Aceon), Perindopril Erbumine]
viability at 10 µM (U2OS): 74%
viability at 10 µM [1]: 99.4%
viability at 10 µM (MDA-MB231): 63.8%
viability at 10 µM (T24): 87.9%
viability at 10 µM [2]: 83.2%
viability at 10 µM (AsPC-1): 64.2%
viability at 10 µM [3]: 75.6%
viability at 10 µM (C-33A): 90.9%
viability at 10 µM (NIH-OVCAR-3): 79.6%
viability at 10 µM (SAS): 52.5%
viability at 10 µM [4]: 87.1%
viability at 10 µM [5]: 78.6%
viability at 10 µM (BxPC-3): 50%
viability at 10 µM [6]: 83.5%
inhibition effect on different cancer cell lines (in words) (cancer cell lines): significant inhibition effect
viability at 10 µM (Hep3B): 99.5%
viability at 10 µM [7]: 105%
viability at 10 µM [8]: 73.8%
viability at 10 µM [9]: 81.1%
viability at 10 µM [10]: 65%
viability at 10 µM [11]: 66.7%
viability at 10 µM (786-O): 86.2%
viability at 10 µM (BCC): 58.7%
viability at 10 µM (TOV-21G): 71.2%
viability at 10 µM [12]: 71.9%

COc1ccc(-c2nc3ccc(C4=NNC(=O)CC4C)cc3[nH]2)cc1 (stereo not drawn) [Pimobendan (Vetmedin), Pimobendan]
viability at 10 µM (U2OS): 56.6%
viability at 10 µM [1]: 87.2%
viability at 10 µM (MDA-MB231): 75%
viability at 10 µM (T24): 74.2%
viability at 10 µM [2]: 44.4%
viability at 10 µM (AsPC-1): 69.3%
viability at 10 µM [3]: 53.9%
viability at 10 µM (C-33A): 62.8%
viability at 10 µM (NIH-OVCAR-3): 74.7%
viability at 10 µM (SAS): 51.1%
viability at 10 µM [4]: 60.8%
viability at 10 µM [5]: 77.8%
viability at 10 µM (BxPC-3): 51.9%
viability at 10 µM [6]: 66.7%
inhibition effect on different cancer cell lines (in words) (cancer cell lines): significant inhibition effect
viability at 10 µM (Hep3B): 94.8%
viability at 10 µM [7]: 59.4%
viability at 10 µM [8]: 65.2%
viability at 10 µM [9]: 69.5%
viability at 10 µM [10]: 53.6%
viability at 10 µM [11]: 34%
viability at 10 µM (786-O): 39.6%
viability at 10 µM (BCC): 49.6%
viability at 10 µM (TOV-21G): 70.7%
viability at 10 µM [12]: 58.3%

O=C([O-])C[C@H](O)C[C@H](O)/C=C/c1c(C2CC2)nc2ccccc2c1-c1ccc(F)cc1.O=C([O-])C[C@H](O)C[C@H](O)/C=C/c1c(C2CC2)nc2ccccc2c1-c1ccc(F)cc1.[Ca+2] [Pitavastatin calcium (Livalo), Pitavastatin calcium]
survival rate (viability) of cancer cells, U2OS (U2OS; 72 hours): 43.44
survival rate (viability) of cancer cells, HepG2 ([1]; 72 hours, WST-1): 98.06
survival rate (viability) of cancer cells, MDA-MB231 (MDA-MB231; 72 hours): 39.0358
survival rate (viability) of cancer cells, T24 (T24; 72 hours): 52.63
survival rate (viability) of cancer cells, A375 ([2]; 72 hours, WST-1): 22.09
survival rate (viability) of cancer cells, AsPC-1 (AsPC-1; 72 hours): 51.36
survival rate (viability) of cancer cells, MCF-7 ([3]; 72 hours, WST-1): 83.57
survival rate (viability) of cancer cells, C-33A (C-33A; 72 hours): 74.75
survival rate (viability) of cancer cells, NIH-OVCAR-3 (NIH-OVCAR-3; 72 hours): 61.41
survival rate (viability) of cancer cells, SAS (SAS; 72 hours): 38.0374
survival rate (viability) of cancer cells, AGS ([4]; 72 hours, WST-1): 19.17
survival rate (viability) of cancer cells, H1650 ([5]; 72 hours, WST-1): 49.9822
survival rate (viability) of cancer cells, BxPC-3 (BxPC-3; 72 hours): 59.78
survival rate (viability) of cancer cells, LoVo ([6]; 72 hours, WST-1): 65.15
inhibition effect on different cancer cell lines (in words) (cancer cell lines): significant inhibition effect
survival rate (viability) of cancer cells, Hep3B (Hep3B; 72 hours): 96.34
survival rate (viability) of cancer cells, TSGH-8301 ([7]; 72 hours, WST-1): 48.92
survival rate (viability) of cancer cells, MKN-45 ([8]; 72 hours, WST-1): 61.3
survival rate (viability) of cancer cells, PC-3 ([9]; 72 hours, WST-1): 27.54
survival rate (viability) of cancer cells, HCT116 ([10]; 72 hours, WST-1): 35.07
survival rate (viability) of cancer cells, HeLa ([11]; 72 hours, WST-1): 36.91
survival rate (viability) of cancer cells, 786-O (786-O; 72 hours): 16.46
survival rate (viability) of cancer cells, BCC (BCC; 72 hours): 26.77
survival rate (viability) of cancer cells, TOV-21G (TOV-21G; 72 hours): 21.79
survival rate (viability) of cancer cells, A549 ([12]; 72 hours, WST-1): 89.44
